Measurements as given in patent publication US20250282711A1, “CRYSTALLINE FORM OF ELACESTRANT AND PREPARATION METHOD AND USE THEREOF” (CRYSTAL PHARMACEUTICAL (SUZHOU) CO., LTD., priority 2022, published 2025).
≈ marks a conversion by molar mass, not a printed value.

Legend:
[1] = low solubility and low permeability; cited from earlier work
[2] = cited from earlier work; for Humidity stability / form conversion: as disclosed in WO2020010216A1 (FIG. 1, Table 17)
[3] = Kinetic solubility in FeSSIF; assay type: physicochemical; details: 37° C., 30 min, 10 mg in 1 mL
Protocol: When solubility test is used to predict the in vivo performance of a drug, it is critical to simulate in vivo conditions as closely as possible. For oral medication, Fed-State Simulated Intestinal Fluid (FeSSIF) can be used to simulate the condition in vivo and predict the effects of feeding, thus solubility in such mediums is closer to that in vivo.
10 mg of Form CSII and 10 mg of prior art Form 1B were suspended into 1 mL of FeSSIF to get suspensions. After equilibrated at 37° C. for 30 min, the suspensions were filtrated to get saturated solutions. The concentrations (mg/mL) of Compound I of the saturated solutions were measured by HPLC.

[4] = Particle size distribution (laser particle size analyzer, wet mode); assay type: physicochemical
Protocol: The particle size distribution data in the present disclosure were acquired by an Mastersizer 3000 laser particle size analyzer of Malvern. The test was carried out in wet mode, using a Hydro MV dispersion device, and the dispersant was Isopar G. The parameters are as follows:
An appropriate amount of Form CSII of the present disclosure and prior art Form 1B was tested particle size distribution. The average particle diameter calculated by volume, the diameter at which 10% mass is comprised of smaller particles (D10), the diameter at which 50% mass is comprised of smaller particles (D50) and the diameter at which 90% mass is comprised of smaller particles (D90) were obtained in particle size distribution test.

Morphology by microscopy = assay type: physicochemical; details: magnification of 200 times
Text: An appropriate amount of Form CSII of the present disclosure was placed on a glass slide and dispersed with vacuum pump oil. It was covered with a cover glass slide and shoot at a magnification of 200 times.

[5] = Flowability (compressibility index, USP <1174>); assay type: physicochemical; details: for Compressibility index: c=(pf−p0)/pf; for Flowability: criteria of USP <1174> Powder Flow
Protocol: Compressibility index is usually utilized to evaluate the flowability of powder or granules during the drug product process. Compressibility index test method is as follows: a certain amount of powder was added into a measuring cylinder and bulk volume was recorded. Then the powder was tapped to make it in the tightest state and the tapped volume was recorded. The bulk density (p0), tapped density (pf) were calculated and compressibility index was calculated according to c=(pf−p0)/pf. According to the criteria of flowability in USP General Charpters: <1174> Powder Flow, the flowability results are shown in Table 10.

[6] = Compressibility (tablet hardness / tensile strength); assay type: physicochemical; details: 60 mg, φ6 mm round tooling, 5 KN; for Hardness: 24 h recovery
Protocol: An ENERPAC manual tablet press was used for compression. 60 mg of Form CSII and prior art Form 1B were weighed and added into the dies of a φ6 mm round tooling, compressed at 5 KN manually, then stored at room temperature for 24 h until elastic recovery is complete, hardness (H) was tested with an intelligent tablet hardness tester. Diameter (D) and thickness (L) were tested with a caliper. Tensile strength of the powder was calculated with the following formula: T=2H/TTDL. Under a certain force, the greater the tensile strength, the better the compressibility.

[7] = Adhesiveness (material sticking to the punch); assay type: physicochemical; details: 30 mg, Φ8 mm round tooling, 10 KN, held 30 s
Protocol: 30 mg of Form CSII and 30 mg of prior art Form 1B were weighed and then added into the dies of Φ8 mm round tooling, compressed at 10 KN by ENERPAC manual tablet press and held for 30 s. The punch was weighed and amount of material sticking to the punch was calculated. The compression was repeated twice and the average amount of material sticking to the punch during the compression were calculated.

[8] = Storage stability of Form CSII drug substance (XRPD, HPLC); assay type: physicochemical
Protocol: An appropriate amount of Form CSII of the present disclosure were stored under different sealed conditions of 25° C./60% RH and 40° C./75% RH with desiccant and antioxidant. Chemical purity and crystalline form were checked by HPLC and XRPD, respectively. […] Form CSII has good stability under both long-term and accelerated conditions.

[9] = Stability upon mechanical force (tableting pressure, grinding); assay type: physicochemical
[10] = Crystal form stability in formulation process; assay type: physicochemical; details: formulation of Table 15, process of Table 16
Text: Form CSII of the present disclosure was made into capsules using the formulation in Table 15 and the preparation process in Table 16. The XRPD patterns were collected before and after the formulation process.

[11] = 25° C./60% RH, sealed with desiccant and antioxidant, 6 months
[12] = 40° C./75% RH, sealed with desiccant and antioxidant, 6 months

| Solubility [3] [µg/mL] | D10 [4] [μm] | D50 [4] [μm] | D90 [4] [μm] | MV (average particle diameter calculated by volume) [4] [μm] | Bulk density [5] [g/mL] | Tapped density [5] [g/mL] | Compressibility index [5] | Flowability [5] | Tensile strength [6] [MPa] | Hardness [6] [kgf] | Average amount of material sticking to the punch [7] [mg] | Structure (SMILES) | Humidity stability / form conversion [2] | further results |
| --- | --- | --- | --- | --- | --- | --- | --- | --- | --- | --- | --- | --- | --- | --- |
| – | – | – | – | – | – | – | – | – | – | – | – | CCNCCc1ccc(CN(CC)c2cc(OC)ccc2[C@@H]2CCc3cc(O)ccc3C2)cc1 [Elacestrant, (R)-6-{2-{ethyl [4-(2-ethylaminoethyl)benzyl]amino}-4-methoxyphenyl}-5,6,7,8-tetrahydronaphthalen-2-ol] | – | BCS class [1]: BCS class IV |
| – | – | – | – | – | – | – | – | – | – | – | – | CCNCCc1ccc(CN(CC)c2cc(OC)ccc2[C@@H]2CCc3cc(O)ccc3C2)cc1 [Form 1] | transitions to Form 3 under high humidity conditions | – |
| – | – | – | – | – | – | – | – | – | – | – | – | CCNCCc1ccc(CN(CC)c2cc(OC)ccc2[C@@H]2CCc3cc(O)ccc3C2)cc1 [Form 2] | transitions to Form 3 when humidity is below 40% RH | – |
| – | – | – | – | – | – | – | – | – | – | – | – | CCNCCc1ccc(CN(CC)c2cc(OC)ccc2[C@@H]2CCc3cc(O)ccc3C2)cc1 [Form 3] | transitions to Form 2 when humidity is above 40% RH | – |
| 2590 (≈ 5.65 mM) | 2.11 | 14.9 | 28.3 | 15.8 | 0.237 | 0.266 | 11 | Good | 0.97 | 18.4 | 0.21 | CCNCCc1ccc(CN(CC)c2cc(OC)ccc2[C@@H]2CCc3cc(O)ccc3C2)cc1 [Form CSII, (R)-6-{2-{ethyl [4-(2-ethylaminoethyl)benzyl]amino}-4-methoxyphenyl}-5,6,7,8-tetrahydronaphthalen-2-ol] | – | Agglomeration (morphology) (Morphology by microscopy): no agglomeration; Maximum particle size (Morphology by microscopy): 30-40 μm; Time kept stable (crystalline state unchanged) ([8]; 25° C./60% RH): at least 6 months; Form (XRPD) [8, 11]: Form CSII; Purity [8, 11]: 99.60%; Time kept stable (crystalline state unchanged) ([8]; 40° C./75% RH): at least 6 months; Form (XRPD) [8, 12]: Form CSII; Purity [8, 12]: 99.58%; Form (XRPD) ([8]; Initial): Form CSII; Purity ([8]; Initial): 99.59%; Solid form after tableting ([9]; Pressure 5 kN): Form CSII; Solid form after tableting ([9]; Pressure 10 kN): Form CSII; Solid form after tableting ([9]; Pressure 15 kN): Form CSII; Crystalline form after grinding ([9]; grinding (ball milling, FIG. 5)): doesn't change; Crystalline form before and after formulation process [10]: remains stable |
| 1170 (≈ 2.55 mM) | 1.64 | 286 | 839 | 350 | 0.198 | 0.248 | 20 | Fair | 0.44 | 9.3 | 0.59 | CCNCCc1ccc(CN(CC)c2cc(OC)ccc2[C@@H]2CCc3cc(O)ccc3C2)cc1 [Prior art Form 1B, reference compound] | can maintain stability at humidity above 90% RH | Particle morphology ([2]; Table 17 of WO2020010216A1): very small flaky particle mainly composed of aggregates |
